Measurements reported in paper PMC7763995 (Molecules, 2020).
Where two headings read alike, the source gives them in different places.

Experiments:
[1] = FRAP (ferric reducing antioxidant power) assay; details: 20 µM, 1 h incubation; ratio of concentrations of Trolox and test compound with same effect
Method: The FRAP (ferric reducing antioxidant power) assay proposed by Benzie and Strain [80, 81] was modified to be performed in 96-well microplates. The FRAP reagent contained 2.5 mL of 10 mM TPTZ (2,4,6-tris(2-pyridyl)-s-triazine (Sigma-Aldrich) solution in 40 mM HCl, 2.5 mL of 20 mM FeCl3 (Sigma-Aldrich) in distilled water and 25 mL of 0.3 M acetate buffer (pH 3.6). In 96-well microplates, 10 µL aliquots of the substance under investigation (compounds 7, 8 or reference substance) dissolved in DMSO (0.5 mM) were placed in quadruplicate. The FRAP reagent (240 µL) freshly prepared and warmed to 37°C was added to three of these samples, while the same volume of acetate buffer was added to the fourth one (blank). Consequently, the concentration of the substance in a plate was 20 µM. The absorbance at 600 nm was monitored spectrophotometrically with a FLUOStar OPTIMA microplate reader at 37°C for an hour with an interval of 5–10 min. Data in Table 2 are given for 1 h of incubation of compounds with FRAP reagent. The absorbances of the blanks and those of the mixture of 240 µL FRAP reagent plus 10 µL DMSO were subtracted from the absorbances of the samples at each time interval to calculate the absorbance change. Standard antioxidants Trolox and BHT dissolved in DMSO and analyzed as described above were used as reference compounds. A calibration curve with linear formula y = 0.03x (R^2 = 0.998, p < 0.0001) was obtained for Trolox solution in DMSO in the range 2.5–100 µM and the results were expressed as FRAP units (the values calculated as the ratio of the concentrations of Trolox and the test compound resulting in the same effect.)

[2] = system: mouse brain homogenate; assay: TBARS assay, spontaneous lipid peroxidation in mouse brain homogenate; details: read-out: Inhibition of Spontaneous Lipid Peroxidation in Mice Brain Homogenate, TBARS Assay, IC50
Method: (§1) The work was carried out in accordance with the EU Directive 2010/63/EU. Hybrid BDF1 mice (about 6 months old) were sacrificed by decapitation. Each brain was rapidly excised, frozen in liquid nitrogen, and stored at −80°C until use. The brains were thawed and homogenized using a Wisd WiseTis HG-15D homogenizer for 2 min in a buffer (0.01 M PBS, pH 7.4 or 0.1 M Tris-HCl, pH 7.4). Protein concentrations were determined by the Lowry method.
The procedure was performed in accordance with the method of Ohkawa et al. with minor modifications. Briefly, mouse brain homogenate (protein concentration 1 mg/mL) in PBS (0.1 M, pH 7.4) was incubated for 30 min at 37°C with tested conjugates, and the reaction was terminated by addition of 0.4 mL of 17% (w/v) trichloroacetic acid (Sigma-Aldrich). Following centrifugation for 20 min at 1300× g, 0.5 mL of 0.8% (w/v) of TBA (Sigma-Aldrich) was added to 1 mL of supernatant, heated for 30 min at 95°C and then cooled to RT. The optical density of the TBARS, which corresponds to the produced MDA, was measured at 532 nm against a blank using an Agilent Cary 60 UV-Vis spectrophotometer (Agilent, Santa Clara, CA, USA). The MDA concentration was calculated using an extinction coefficient of 1.56 × 10^5 M^−1cm^−1. Trolox and BHT were used as reference antioxidants. Compounds were dissolved in DMSO (Sigma-Aldrich) and tested in a concentration range 0.01–100 μM. All compounds were examined at least in triplicate.

[3] = ABTS radical cation scavenging activity assay; details: for IC50 / ABTS^•+-Scavenging Activity, TEAC: 1 h incubation; for ABTS^•+-Scavenging Activity, TEAC: ratio of slopes test compound/Trolox
Method: Radical scavenging activity of the compounds was assessed using the ABTS radical decolorization assay with some modifications. ABTS was purchased from Tokyo Chemical Industry Co., Ltd. (Tokyo, Japan), potassium persulfate (dipotassium peroxodisulfate), Trolox (6-hydroxy-2,5,7,8-tetramethychroman-2-carboxylic acid), and HPLC-grade ethanol were obtained from Sigma-Aldrich. Aqueous solutions were prepared using deionized water.
The solution of cation radical ABTS^•+ was produced by incubation of ABTS with potassium persulfate in deionized water for 12–16 h at room temperature in the dark. Radical scavenging capacity of the compounds was analyzed by mixing 10 μL of compound with 240 μL of ABTS^•+ working solution in ethanol (100 μM final concentration). The reaction was monitored for an hour with an interval of 5–10 min. Data are given for 1 h of incubation of compounds with ABTS^•+. The reduction in absorbance was measured spectrophotometrically at 734 nm using a xMark microplate UV/VIS microplate spectrophotometer (Bio-Rad, Hercules, CA, USA).
Ethanol blanks were run in each assay. Values were obtained from three replicates of each sample and three independent experiments. Standard antioxidants Trolox and BHT were used as reference compounds.
Antioxidant capacity as Trolox equivalent (TEAC) values was determined as the ratio between the slopes obtained from the linear correlation of the ABTS radical absorbance with the concentrations of tested compounds and Trolox. […] The compounds were tested in the concentration range of 0.1–100 µM.

[4] = system: mouse brain homogenate; assay: Luminol chemiluminescence assay in mouse brain homogenate (TBHP-initiated); details: compound concentration 20 µM; mice brain homogenate
Method: as §1
Luminol-dependent chemiluminescence produced by mouse brain homogenates was measured using a 1250 Luminometer (LKB Wallac, Turku, Finland) according to the assay by Di Meo et al. with minor modifications. The reaction mixture consisted of mouse brain homogenate (protein concentration 0.1 mg/mL) in 0.1 M Tris-HCl (Sigma-Aldrich), pH 7.4, luminol (Sigma-Aldrich) (0.05 mM), TBHP (Sigma-Aldrich) (0.073 M) and tested compounds at a concentration of 20 μM. This was placed in a light-proof luminometer chamber and the background reading was recorded. All measurements were carried out at 37°C. The gain control was set to give a reading of 10 mV using a built-in standard. The free radical content in mouse brain homogenate was evaluated by the change in the light sum (the area under the kinetic curve of luminescence intensity for the entire luminescence time). All compounds were examined at least in triplicate. The effects of tested compounds were measured as the percentage decrease in the light sum relative to the control (a sample with no compound added).

[5] = system: Porcine liver CES; assay: In vitro CES inhibition, 4-NPA substrate; assay type: biochemical; details: compound concentration 20 µM; n.a. = not active
Method: (§2) Measurements were performed with a FLUOStar Optima microplate reader (BMG Labtech, Ortenberg, Germany). Compounds were dissolved in DMSO, the incubation mixture contained 2% solvent.

[6] = molecular target: T1, EeAChE PAS (Electrophorus electricus, UniProt O42275); assay type: binding; details: compound concentration 20 µM
T1 construct: Electric eel AChE (EeAChE, type VI-S, lyophilized powder); purchased Sigma-Aldrich type VI-S; host or cells: electric eel
T1 sequence (O42275 24-633): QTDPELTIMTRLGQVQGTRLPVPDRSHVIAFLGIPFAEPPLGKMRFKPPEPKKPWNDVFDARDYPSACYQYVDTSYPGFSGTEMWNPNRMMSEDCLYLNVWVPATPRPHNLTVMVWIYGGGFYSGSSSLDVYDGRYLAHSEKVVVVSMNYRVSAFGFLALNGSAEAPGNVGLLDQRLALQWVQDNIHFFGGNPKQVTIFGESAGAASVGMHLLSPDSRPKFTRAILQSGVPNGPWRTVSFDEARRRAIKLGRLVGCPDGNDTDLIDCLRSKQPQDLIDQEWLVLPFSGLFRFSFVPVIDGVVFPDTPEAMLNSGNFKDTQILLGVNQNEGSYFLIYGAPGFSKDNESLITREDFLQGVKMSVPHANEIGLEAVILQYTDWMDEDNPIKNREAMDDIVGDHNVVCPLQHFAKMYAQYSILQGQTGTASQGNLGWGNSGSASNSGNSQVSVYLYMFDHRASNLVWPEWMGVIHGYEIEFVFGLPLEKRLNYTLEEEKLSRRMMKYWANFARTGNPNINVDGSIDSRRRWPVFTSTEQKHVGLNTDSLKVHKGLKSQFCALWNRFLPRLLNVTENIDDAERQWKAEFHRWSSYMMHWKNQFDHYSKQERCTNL
Method: Electric eel AChE (EeAChE, type VI-S, lyophilized powder, Sigma-Aldrich, Saint Louis, MO, USA) was used owing to its high degree of purification, high activity, and lower cost compared to human AChE.
The blank contained propidium iodide of the same concentration in 1 mM Tris-HCl buffer pH 8.0. The measurements were carried out in triplicate on a FLUOStar Optima microplate reader, and the results were calculated by formula (1):% Displacement = 100 − (IFAChE+ Propidium + inhibitor / IFAChE + Propidium) × 100(1) where IFAChE + Propidium is the fluorescence intensity of the propidium associated with AChE in the absence of the test compound (taken as 100%), and IFAChE + Propidium + inhibitor is the fluorescence intensity of the propidium associated with AChE in the presence of the test compound.

[7] = molecular target: T2, Equine serum BChE (Equus caballus, UniProt P81908); assay: biochemical; details: for Selectivity for BChE: IC50 AChE / IC50 BChE
T2 construct: equine serum BChE; purchased Sigma-Aldrich; host or cells: equine serum
T2 sequence (P81908 whole entry): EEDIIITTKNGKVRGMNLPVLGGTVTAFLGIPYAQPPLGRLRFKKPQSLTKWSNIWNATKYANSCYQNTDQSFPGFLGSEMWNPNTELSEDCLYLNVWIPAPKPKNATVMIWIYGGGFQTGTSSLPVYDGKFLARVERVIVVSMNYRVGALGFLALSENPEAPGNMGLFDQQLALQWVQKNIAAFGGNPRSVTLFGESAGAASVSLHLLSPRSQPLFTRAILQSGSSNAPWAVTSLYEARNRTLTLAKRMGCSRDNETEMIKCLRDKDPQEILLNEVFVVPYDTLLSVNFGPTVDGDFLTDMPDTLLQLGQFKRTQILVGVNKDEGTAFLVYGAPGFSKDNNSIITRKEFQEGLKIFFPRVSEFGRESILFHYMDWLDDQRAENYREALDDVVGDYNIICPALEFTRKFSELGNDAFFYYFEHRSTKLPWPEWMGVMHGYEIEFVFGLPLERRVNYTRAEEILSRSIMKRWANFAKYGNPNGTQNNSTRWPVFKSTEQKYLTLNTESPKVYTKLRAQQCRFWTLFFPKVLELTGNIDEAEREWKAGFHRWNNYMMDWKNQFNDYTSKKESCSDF
Method: as §2

[8] = molecular target: T3, Human erythrocyte AChE (Homo sapiens, UniProt P22303); assay: biochemical
T3 construct: AChE from human erythrocytes was used; purchased Sigma-Aldrich; host or cells: human erythrocytes
T3 sequence (P22303 32-617 isoform P22303-2 limits assumed): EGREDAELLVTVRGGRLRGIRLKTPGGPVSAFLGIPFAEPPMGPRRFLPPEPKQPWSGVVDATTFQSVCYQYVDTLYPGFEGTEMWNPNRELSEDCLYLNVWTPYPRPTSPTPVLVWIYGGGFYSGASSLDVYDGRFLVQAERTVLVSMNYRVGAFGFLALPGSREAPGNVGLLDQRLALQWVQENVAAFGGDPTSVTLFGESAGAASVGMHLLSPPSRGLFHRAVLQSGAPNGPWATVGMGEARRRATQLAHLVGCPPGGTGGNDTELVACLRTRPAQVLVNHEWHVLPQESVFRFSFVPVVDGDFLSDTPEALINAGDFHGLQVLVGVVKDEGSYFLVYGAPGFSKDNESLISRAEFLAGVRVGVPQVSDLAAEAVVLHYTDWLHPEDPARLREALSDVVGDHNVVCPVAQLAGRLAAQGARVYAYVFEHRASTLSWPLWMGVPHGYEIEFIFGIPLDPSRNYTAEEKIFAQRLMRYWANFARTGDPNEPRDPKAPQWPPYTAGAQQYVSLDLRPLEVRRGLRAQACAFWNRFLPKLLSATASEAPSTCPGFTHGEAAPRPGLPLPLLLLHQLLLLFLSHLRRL
Method: as §2

[9] = system: AChE; design: method as in PMID 15658850; details: read-out: anti-AChE activity, IC50; cited from earlier work
[10] = system: AChE-induced Aβ aggregation; design: method as in PMID 15658850; details: cited from earlier work
[11] = mean ± SEM, n = 3, n.a. = not active, read-out: Equine Serum BChE, IC50
[12] = mean ± SEM, n = 3, n.a. = not active, read-out: Human Erythrocyte AChE, IC50

| SMILES | Ferric Reducing Antioxidant Power, FRAP Units [1] | IC50 [2] | IC50 [3] | ABTS^•+-Scavenging Activity, TEAC [3] | Radical Scavenging Capacity in Luminol Chemiluminescence Assay, Luminescence Inhibition, % [4] | Porcine Liver CES, (%) inhibition [5] | Displacement of Propidium from EeAChE PAS (%) [6] | Selectivity for BChE [7] | IC50 [7, 11] | IC50 [8, 12] | IC50 [7] | IC50 [8] | Time of maximum binding of the ABTS radical [3] | IC50 [9] | IC50 [10] |
| --- | --- | --- | --- | --- | --- | --- | --- | --- | --- | --- | --- | --- | --- | --- | --- |
| Cc1cc(C(C)(C)C)c(O)c(C(C)(C)C)c1 [BHT, butylated hydroxytoluene, reference compound] | 1.76 ± 0.07 | 6.89 ± 0.26 µM | 22.4 ± 1.4 µM | 0.98 ± 0.03 | 72.0 ± 2.6% | – | – | – | – | – | – | – | – | – | – |
| O=[N+]([O-])c1ccc(OP(=O)(O)Oc2ccc([N+](=O)[O-])cc2)cc1 [BNPP, bis-4-nitrophenyl phosphate, reference compound] | – | – | – | – | – | 92.1 ± 1.8 ^3% | – | – | – | – | – | – | – | – | – |
| CC(C)(C)c1cc(C=NCCNc2c3c(nc4ccccc24)CCC3)cc(C(C)(C)C)c1O [Compound 7a, 2,6-Di-tert-butyl-4-{[2-(2,3-dihydro-1H-cyclopenta[b]quinolin-9-ylamino)-ethylimino]-methyl}-phenol] | 0.51 ± 0.03 | 19.6 ± 0.8 µM | 22.3 ± 1.5 µM | – | 94.0 ± 0.2% | 26.1 ± 0.7% | 18.1 ± 1.6% | 2.5 | 1.92 ± 0.11 µM | 4.86 ± 0.01 µM | – | – | – | – | – |
| CC(C)(C)c1cc(C=NCCNc2c3c(nc4ccccc24)CCCC3)cc(C(C)(C)C)c1O [Compound 7b, 2,6-Di-tert-butyl-4-{[2-(1,2,3,4-tetrahydro-acridin-9-ylamino)-ethylimino]-methyl}-phenol] | 0.58 ± 0.03 | 7.21 ± 0.62 µM | 17.1 ± 1.4 µM | 1.13 ± 0.05 | 95.0 ± 0.2% | 28.6 ± 1.6% | 18.2 ± 1.6% | 3.7 | 1.61 ± 0.04 µM | 5.98 ± 0.13 µM | – | – | – | – | – |
| CC(C)(C)c1cc(C=NCCNc2c3c(nc4ccccc24)CCCCCC3)cc(C(C)(C)C)c1O [Compound 7d, 2,6-Di-tert-butyl-4-{[2-(6,7,8,9,10,11-hexahydro-cycloocta[b]quinolin-12-ylamino)-ethylimino]-methyl}-phenol] | 0.57 ± 0.02 | 14.8 ± 1.3 µM | 17.8 ± 1.7 µM | 1.12 ± 0.05 | 95.0 ± 0.2% | 20.4 ± 1.6% | 17.1 ± 1.8% | 10.5 | 4.27 ± 0.26 µM | 45 ± 5.7 µM | – | – | – | – | – |
| CC(C)(C)c1cc(CNCCNc2c3c(nc4ccccc24)CCC3)cc(C(C)(C)C)c1O [Compound 8a, 2,6-Di-tert-butyl-4-{[2-(2,3-dihydro-1H-cyclopenta[b]quinolin-9-ylamino)-ethylamino]-methyl}-phenol] | 0.77 ± 0.02 | 6.23 ± 0.33 µM | 12.7 ± 1.1 µM | 1.39 ± 0.05 | 95.0 ± 0.1% | 19.6 ± 1.3% | 16.4 ± 1.4% | 5.4 | – | – | 0.652 ± 0.005 µM | 3.5 ± 0.33 µM | 5 min | – | – |
| CC(C)(C)c1cc(CNCCNc2c3c(nc4ccccc24)CCCCC3)cc(C(C)(C)C)c1O [Compound 8c, 2,6-Di-tert-butyl-4-{[2-(7,8,9,10-tetrahydro-6H-cyclohepta[b]quinolin-11-ylamino)-ethylamino]-methyl}-phenol] | 0.80 ± 0.06 | 9.38 ± 0.12 µM | 14.1 ± 0.8 µM | 1.35 ± 0.04 | 91.0 ± 0.6% | 26.0 ± 1.9% | 13.6 ± 1.2% | – | – | – | 0.084 ± 0.008 µM | 1.9 ± 0.16 µM | 5 min | – | – |
| Cc1c(C)c2c(c(C)c1O)CCC(C)(C(=O)O)O2 (stereo not drawn) [Trolox, 6-hydroxy-2,5,7,8-tetramethychroman-2-carboxylic acid, reference compound] | 1.0 | 91.8 ± 0.3 µM | 20.1 ± 1.2 µM | 1.0 | 88.0 ± 1.0% | – | – | – | – | – | – | – | – | – | – |
| O=C(CCCCC1CCSS1)NCCCNc1c2c(nc3cc(Cl)ccc13)CCCC2 (stereo not drawn) [lipocrine] | – | – | – | – | – | – | – | – | – | – | – | – | – | 0.000253 µM | 45 µM |
